This assay deals with CD2F1 mice, L1210 leukemia ip, survival T/C. In words: NCI In Vivo Anticancer Drug Screen. Data for tumor model L1210 Leukemia (intraperitoneal) in CD2F1 (CDF1) mice. The note with it: endpoint: mean survival time, higher = longer survival. Put shortly:
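In this screen, transplantable tumors were grown in mice given either the compound or its vehicle. Results were expressed as the treated measurement relative to the control measurement.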

Setting [1] is: dose: 12.5 mg/kg/injection, schedule: Q01DX009 (ip), vehicle: saline.
[2] abbreviates: dose: 25.0 mg/kg/injection, schedule: Q01DX009 (ip), vehicle: saline.
The mark [3] stands for this setting: dose: 50.0 mg/kg/injection, schedule: Q01DX009 (ip), vehicle: saline.
[4] abbreviates: dose: 100.0 mg/kg/injection, schedule: Q04DX003 (ip), vehicle: saline with Tween-80.
Where [5] appears, read: dose: 200.0 mg/kg/injection, schedule: Q04DX003 (ip), vehicle: saline with Tween-80.
Where [6] appears, read: dose: 400.0 mg/kg/injection, schedule: Q04DX003 (ip), vehicle: saline with Tween-80.
Where [7] appears, read: dose: 100.0 mg/kg/injection, schedule: Q04DX002 (ip), vehicle: saline with Tween-80.
Where [8] appears, read: dose: 200.0 mg/kg/injection, schedule: Q04DX002 (ip), vehicle: saline with Tween-80.
The mark [9] stands for this setting: dose: 400.0 mg/kg/injection, schedule: Q04DX002 (ip), vehicle: saline with Tween-80.
The mark [10] stands for this setting: dose: 25.0 mg/kg/injection, schedule: Q04DX002 (ip), vehicle: saline with Tween-80.
[11] abbreviates: dose: 50.0 mg/kg/injection, schedule: Q04DX002 (ip), vehicle: saline with Tween-80.
Setting [12] is: dose: 100.0 mg/kg/injection, schedule: Q01DX001 (ip), vehicle: saline.
Where [13] appears, read: dose: 200.0 mg/kg/injection, schedule: Q01DX001 (ip), vehicle: saline.
[14] abbreviates: dose: 6.25 mg/kg/injection, schedule: Q01DX009 (ip), vehicle: saline.

Values joined by “and” are separate entries in the source; they are usually repeats but may differ in a detail not shown here. Identical values can stand only once. Toxic doses and inconclusive results are not listed.

For `c1ccc(CN2CCOC2)cc1`, the T/C reads like this: under setting [1], 95 % of control and 101 % of control; under setting [2], 97 % of control and 101 % of control; under setting [3], 100 % of control and 106 % of control; (dose: 100.0 mg/kg/injection, schedule: Q01DX009 (ip), vehicle: saline) 104 % of control and 106 % of control; (dose: 200.0 mg/kg/injection, schedule: Q01DX009 (ip), vehicle: saline) 95 % of control and 106 % of control.

On to `CCCCCCCCCCCCN1C(C)=CS/C1=C\C=C\c1scc(C)[n+]1CCCCCCCCCCCC`, for which, where the note is “dose: 0.78 mg/kg/injection, schedule: Q01DX009 (ip), vehicle: saline with Tween-80”, the T/C is 123 % of control.

As to `S=C(NCCc1ccccc1)Nc1ccccc1`, the T/C reads like this: under setting [4], 97 % of control; under setting [5], 95 % of control; under setting [6], 95 % of control.

`N#C[S-].N#C[S-].[Au+3].[Au+3].[CH3-].[CH3-].[CH3-].[CH3-]`: the T/C under setting [4] was 96 % of control and the T/C under setting [5] is 98 % of control.

`C1CCN(CN2CCCCC2)CC1`: the T/C under setting [1] is 103 % of control; the T/C under setting [2] was 98 % of control; the T/C (dose: 25.0 mg/kg/injection, schedule: Q04DX003 (ip), vehicle: saline) is 90 % of control; the T/C under setting [3] was 97 % of control; the T/C (dose: 50.0 mg/kg/injection, schedule: Q04DX003 (ip), vehicle: saline) was 92 % of control.

With `NC(=O)c1ccccc1CO`, the T/C was 102 % of control under setting [7], 98 % of control under setting [8] and 98 % of control under setting [9].

Take `Cc1ccc(-n2c(O)c(N=Nc3ccccc3)c(=O)n(-c3ccccc3)c2=S)cc1`: the T/C is, setting by setting: (dose: 100.0 mg/kg/injection, schedule: Q01DX001 (ip), vehicle: saline with Tween-80) 100 % of control; (dose: 200.0 mg/kg/injection, schedule: Q01DX001 (ip), vehicle: saline with Tween-80) 100 % of control; (dose: 400.0 mg/kg/injection, schedule: Q01DX001 (ip), vehicle: saline with Tween-80) 86 % of control.

Turning to `C=C1C(=C)C2C=CC1C1C3C(c4ccccn4)=NN=C(c4ccccn4)C3C21` (stereo not given), the T/C under setting [10] is 95 % of control; the T/C under setting [11] was 98 % of control; the T/C under setting [7] was 98 % of control; the T/C under setting [8] is 88 % of control; the T/C under setting [9] was 103 % of control.

As for `O=C(Nc1c(Oc2ccc(Cl)cc2Cl)ccc(Cl)c1S(=O)(=O)O)Nc1c(Oc2ccc(Cl)cc2Cl)ccc(Cl)c1S(=O)(=O)O`, the T/C is 94 % of control under setting [12] and 93 % of control under setting [13].

Take `Nc1nc(N)c(-c2cccc(Cl)c2)c(CBr)n1`: the T/C is, setting by setting: under setting [14], 102 % of control; under setting [1], 103 % of control; under setting [2], 109 % of control.

`COC1OCC(O)C(NC(=O)N(C)N=O)C1O` (stereo not given): the T/C runs as follows: under setting [3], 160 % of control; (dose: 75.0 mg/kg/injection, schedule: Q01DX009 (ip), vehicle: saline) 186 % of control.

On to `ICC1COC(CI)CO1` (stereo not given), for which the T/C was 102 % of control (dose: 100.0 mg/kg/injection, schedule: Q01DX009 (ip), vehicle: saline with Tween-80); 105 % of control under setting [4]; 96 % of control (dose: 200.0 mg/kg/injection, schedule: Q01DX009 (ip), vehicle: saline with Tween-80); 110 % of control under setting [5]; 100 % of control (dose: 400.0 mg/kg/injection, schedule: Q01DX009 (ip), vehicle: saline with Tween-80); 100 % of control under setting [6].

As for `CN(CCSSCCN(C)/N=C/c1ccccc1)/N=C/c1ccccc1`, the T/C by setting is: under setting [4], 97 % of control; under setting [5], 101 % of control; under setting [6], 101 % of control.

With `CCOC(=O)Nc1cc2c(c(N)n1)N=C(CN(C)c1ccccc1)CN2`, the T/C reads like this: (dose: 6.25 mg/kg/injection, schedule: Q01DX009 (ip), vehicle: Klucel (hydroxypropylcellulose) (HPC)) 110 % of control; (dose: 12.5 mg/kg/injection, schedule: Q01DX009 (ip), vehicle: Klucel (hydroxypropylcellulose) (HPC)) 87 % of control.

As for `CCOC(=O)/C(Cc1cc(Cl)nnc1Cl)=N\N`, the T/C is, setting by setting: (dose: 12.5 mg/kg/injection, schedule: Q04DX002 (ip), vehicle: saline with Tween-80) 113 % of control; under setting [10], 98 % of control; under setting [11], 87 % of control.

As to `O=C1C2C(C(=O)N1c1ccccc1)C1c3ccccc3C2C2CCCCN21` (stereo not given), the T/C was 95 % of control (dose: 12.5 mg/kg/injection, schedule: Q04DX003 (ip), vehicle: Klucel (hydroxypropylcellulose) (HPC)); 101 % of control (dose: 25.0 mg/kg/injection, schedule: Q04DX003 (ip), vehicle: Klucel (hydroxypropylcellulose) (HPC)); 93 % of control (dose: 50.0 mg/kg/injection, schedule: Q04DX003 (ip), vehicle: Klucel (hydroxypropylcellulose) (HPC)).

As to `CCCCCCCCc1ccc(NNC(N)=S)cc1`, the T/C is 93 % of control and 98 % of control and 101 % of control (dose: 1.56 mg/kg/injection, schedule: Q01DX009 (ip), vehicle: saline); 96 % of control (2×) and 106 % of control (dose: 3.12 mg/kg/injection, schedule: Q01DX009 (ip), vehicle: saline); 96 % of control and 97 % of control and 104 % of control under setting [14]; 97 % of control (2×) and 101 % of control under setting [1].

Regarding `CC(=O)Nc1nnc(Cl)s1`, the T/C (dose: 100.0 mg/kg/injection, schedule: Q04DX002 (ip), vehicle: saline) was 101 % of control; the T/C (dose: 200.0 mg/kg/injection, schedule: Q04DX002 (ip), vehicle: saline) is 97 % of control; the T/C (dose: 400.0 mg/kg/injection, schedule: Q04DX002 (ip), vehicle: saline) was 104 % of control.

In the case of `CCN1C(=O)CC(O)C1=O` (stereo not given), the T/C runs as follows: under setting [12], 105 % of control; under setting [13], 103 % of control; (dose: 400.0 mg/kg/injection, schedule: Q01DX001 (ip), vehicle: saline) 103 % of control.

Regarding `COc1ccc(CC2C(=O)NC(C)C(=O)N(C)C3C(=O)N(C)C(Cc4ccc(O)c(c4)Oc4ccc(cc4)C3O)C(=O)NC(C)C(=O)NC(C)C(=O)N2C)cc1` (stereo not given), the T/C was 106 % of control (dose: 0.06 mg/kg/injection, schedule: Q01DX009 (ip), vehicle: saline); 113 % of control and 102 % of control and 104 % of control (dose: 0.12 mg/kg/injection, schedule: Q01DX009 (ip), vehicle: saline); 113 % of control and 110 % of control (dose: 0.25 mg/kg/injection, schedule: Q01DX009 (ip), vehicle: Klucel (hydroxypropylcellulose) (HPC)); 114 % of control and 97 % of control and 108 % of control (dose: 0.25 mg/kg/injection, schedule: Q01DX009 (ip), vehicle: saline); 113 % of control and 103 % of control (dose: 0.5 mg/kg/injection, schedule: Q01DX009 (ip), vehicle: Klucel (hydroxypropylcellulose) (HPC)); 104 % of control and 109 % of control (dose: 0.5 mg/kg/injection, schedule: Q01DX009 (ip), vehicle: saline). Moreover, the T/C is, setting by setting: (dose: 1.0 mg/kg/injection, schedule: Q01DX009 (ip), vehicle: Klucel (hydroxypropylcellulose) (HPC)) 113 % of control and 110 % of control; (dose: 1.0 mg/kg/injection, schedule: Q01DX009 (ip), vehicle: saline) 113 % of control and 114 % of control and 110 % of control; (dose: 2.0 mg/kg/injection, schedule: Q01DX009 (ip), vehicle: Klucel (hydroxypropylcellulose) (HPC)) 113 % of control and 111 % of control; (dose: 2.0 mg/kg/injection, schedule: Q01DX009 (ip), vehicle: saline) 116 % of control and 123 % of control; (dose: 4.0 mg/kg/injection, schedule: Q01DX009 (ip), vehicle: Klucel (hydroxypropylcellulose) (HPC)) 119 % of control; (dose: 4.0 mg/kg/injection, schedule: Q01DX009 (ip), vehicle: saline) 88 % of control and 96 % of control.

For `O=C1CC2c3[nH]c4ccccc4c3CCN2C2=C1CCCC2` (stereo not given), the T/C is, setting by setting: under setting [4], 100 % of control; under setting [5], 103 % of control.

These data come from PubChem BioAssay AID256 (DTP/NCI, 2004).
